Source: ChEMBL document CHEMBL1201862, “PubChem BioAssay data set” (2004)
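96-well plates; 48 h exposure; 5 concentrations. Endpoints by linear interpolation between flanking doses. Not reached: highest tested concentration assigned. The concentration for 50% growth inhibition is given as GI50.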 Calls of active or inactive are those of the source. Cut-off read from the data, not from the text of the source: active = GI50 up to about 1.1 µM and inactive = higher.

Key:
Experiment in all cases: NCI anticancer screen, dose series, 48 h
[1] = system: M19-MEL
[2] = system: CCRF-CEM
[3] = system: U-251
[4] = system: HT-29
[5] = system: HCT-15
[6] = system: HCT-116
[7] = system: SF-539
[8] = system: SW-620
[9] = system: HOP-62
[10] = system: UACC-257
[11] = system: NCI-H460
[12] = system: KM12
[13] = system: SK-OV-3
[14] = system: CAKI-1
[15] = system: T47D
[16] = system: RXF 393
[17] = system: UACC-62
[18] = system: MCF7
[19] = system: NCI/ADR-RES
[20] = system: EKVX

Structure (SMILES)	GI50 [1]	GI50 [2]	GI50 [3]	GI50 [4]	GI50 [5] [µM]	GI50 [6]	GI50 [7]	GI50 [8]	GI50 [9]	GI50 [10]	GI50 [11]	GI50 [12]	GI50 [13]	GI50 [14]	GI50 [15]	GI50 [16]	GI50 [17]	GI50 [18]	GI50 [19]	GI50 [20]
O=C(CSC(=S)N1CCCCC1)Nc1nc2c(s1)CCCC2	32.9 µM (inactive)	29.4 µM (inactive)	29.2 µM (inactive)	36.3 µM (inactive)	8.73	12.1 µM (inactive)	34 µM (inactive)	40.7 µM (inactive)	91.4 µM (inactive)	23.3 µM (inactive)	15.1 µM (inactive)	57.4 µM (inactive)	> 100 µM (inactive)	–	–	–	–	–	–	–
O=C(O)c1ccc(Nc2nc3ccc(C(F)(F)F)cc3nc2C(=O)O)cc1	–	> 100 µM (inactive)	> 100 µM (inactive)	> 100 µM (inactive)	> 100	> 100 µM (inactive)	> 100 µM (inactive)	> 100 µM (inactive)	> 100 µM (inactive)	> 100 µM (inactive)	> 100 µM (inactive)	> 100 µM (inactive)	> 100 µM (inactive)	> 100 µM (inactive)	> 100 µM (inactive)	> 100 µM (inactive)	> 100 µM (inactive)	> 100 µM (inactive)	> 100 µM (inactive)	> 100 µM (inactive)
COC(=O)C#Cc1ccc([N+](=O)[O-])cc1	–	0.532 µM (active)	1.88 µM (inactive)	1.6 µM (inactive)	0.502	1.15 µM (inactive)	1.69 µM (inactive)	1.19 µM (inactive)	2.65 µM (inactive)	2.37 µM (inactive)	13.1 µM (inactive)	1.8 µM (inactive)	8.32 µM (inactive)	1.38 µM (inactive)	1.45 µM (inactive)	1.9 µM (inactive)	2.69 µM (inactive)	1.91 µM (inactive)	2.87 µM (inactive)	1.76 µM (inactive)
CN(Cc1cc(Cl)cc(Cl)c1)CC(C(=O)c1ccccc1)c1ccccc1 (stereo not drawn)	–	< 0.0439 µM (active)	1.38 µM (inactive)	1.12 µM (active)	0.368	0.689 µM (active)	5.77 µM (inactive)	0.326 µM (active)	24.8 µM (inactive)	2.56 µM (inactive)	27.5 µM (inactive)	3.78 µM (inactive)	10.6 µM (inactive)	1.03 µM (active)	2.02 µM (inactive)	4 µM (inactive)	2.9 µM (inactive)	3.73 µM (inactive)	1.57 µM (inactive)	16.7 µM (inactive)
COC(=O)[C@H](C)[C@@H]1CC[C@](C)(CCC2=C(C)CCCC2(C)C)OO1	–	19.5 µM (inactive)	> 25 µM (inactive)	> 25 µM (inactive)	> 25	> 25 µM (inactive)	> 25 µM (inactive)	> 25 µM (inactive)	> 25 µM (inactive)	> 25 µM (inactive)	> 25 µM (inactive)	> 25 µM (inactive)	> 25 µM (inactive)	> 25 µM (inactive)	> 25 µM (inactive)	> 25 µM (inactive)	> 25 µM (inactive)	> 25 µM (inactive)	> 25 µM (inactive)	> 25 µM (inactive)
COc1nc(N)c(NC2OC(CO)C(O)C2O)c(=O)[nH]1 (stereo not drawn)	–	> 100 µM (inactive)	> 100 µM (inactive)	> 100 µM (inactive)	> 100	> 100 µM (inactive)	> 100 µM (inactive)	> 100 µM (inactive)	> 100 µM (inactive)	> 100 µM (inactive)	> 100 µM (inactive)	> 100 µM (inactive)	> 100 µM (inactive)	> 100 µM (inactive)	> 100 µM (inactive)	> 100 µM (inactive)	> 100 µM (inactive)	> 100 µM (inactive)	> 100 µM (inactive)	> 100 µM (inactive)
